Patent publication US9051310B2, “Nicotinamide derivative or salt thereof” (FUJIFILM Corporation, priority 2011, dated 2015)

Assays:
[1] = system: THP-1 cells (phagocytosis of opsonized Escherichia coli); assay: Antibody-dependent phagocytosis assay; assay type: cell-based; conditions: Homo sapiens; IFNγ differentiated THP-1 cells, opsonized pHrodo Escherichia coli, 3 hours; read-out: IC50 upon phagocytosis inhibition
In short: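 Read-out was imaging-based quantification of pHrodo-labeled, antibody-opsonized E. coli taken up by Calcein AM-stained viable cells after 3 h at 37° C. The cells were IFNγ-differentiated THP-1 macrophages (10 ng/ml, 2 days), preincubated with compound for 30 min at room temperature.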

[2] = system: THP-1 cells (TNFα secretion on human IgG-coated plate); assay: TNFα generation assay; assay type: cell-based; conditions: IFN-γ differentiated THP-1 cells, 7 hours, AlphaLISA, read-out: IC50 of TNFα generation inhibitory activity
In short: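 Secreted TNFα was measured by AlphaLISA after 7 h of culture on human IgG-coated wells (coating at 10 μg/ml), with 5×10^4 cells/well. Before plating, the cells had been treated with compound for 30 min at room temperature. The cells were macrophage-like THP-1, produced by a 2-day exposure to 10 ng/ml IFN-γ.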

[3] = target: T1, glutathione S-transferase (GST)-linked full-length human Syk protein (Homo sapiens, UniProt P43405); assay: Syk enzyme assay; assay type: biochemical; conditions: 0.83 nM Syk, time-resolved fluorescence; read-out: IC50 of Syk-inhibitory activity
T1 construct: glutathione S-transferase (GST)-linked full-length human Syk protein; purchased Carna Biosciences; host or cells: Baculovirus expression system
In short: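 Phosphotyrosine on a biotin-peptide substrate (0.5 μM) was read by time-resolved fluorescence at 615 and 665 nm with Eu-anti-pTyr antibody and APC-streptavidin after 1 h EDTA stop.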

`COCCn1nc(OC)c2cc(Nc3nc(N[C@H](CC(C)C)[C@H](C)N)c(F)cc3C(N)=O)ccc21` [Example 2-127, 6-(((2S,3R)-2-amino-5-methylhexan-3-yl)amino)-5-fluoro-2-((3-methoxy-1-(2-methoxyethyl)-1H-indazol-5-yl)amino)nicotinamide] was tested, and the IC50 [1] was < 1000 nM, the IC50 [2] was 130 to 200 nM and the IC50 [3] was < 10 nM.

Compound `COCCn1nc(C)c2cc(Nc3nc(N[C@H](COC)[C@H](C)N)c(F)cc3C(N)=O)ccc21` [Example 2-135, 6-(((2S,3S)-3-amino-1-methoxybutan-2-yl)amino)-5-fluoro-2-((1-(2-methoxyethyl)-3-methyl-1H-indazol-5-yl)amino)nicotinamide] has an IC50 [1] of 1000 to 3000 nM, an IC50 [2] of 130 to 200 nM and an IC50 [3] of 10 to 50 nM.

With `CC[C@H](N)[C@@H](C)Nc1nc(Nc2ccc3c(c2)c(C)nn3CCOC)c(C(N)=O)cc1F` [Example 2-136, 6-(((2R,3S)-3-aminopentan-2-yl)amino)-5-fluoro-2-((1-(2-methoxyethyl)-3-methyl-1H-indazol-5-yl)amino)nicotinamide] the IC50 [1] was 1000 to 3000 nM, the IC50 [2] was 130 to 200 nM and the IC50 [3] was 10 to 50 nM.

Work on `COc1ncc(Nc2nc(N[C@H](C3CC3)[C@H](C)N)c(F)cc2C(N)=O)cc1-n1ccnn1` [Example 2-162, 6-(((1R,2S)-2-amino-1-cyclopropylpropyl)amino)-5-fluoro-2-((6-methoxy-5-(1H-1,2,3-triazol-1-yl)pyridin-3-yl)amino)nicotinamide] yielded an IC50 [1] of 1000 to 3000 nM, an IC50 [2] of 130 to 200 nM and an IC50 [3] of 10 to 50 nM.

`CC[C@@H](Nc1nc(Nc2ccc3c(c2)c(OC(F)F)nn3C)c(C(N)=O)cc1F)[C@H](C)N` [Example 2-170, 6-(((2S,3R)-2-aminopentan-3-yl)amino)-2-((3-(difluoromethoxy)-1-methyl-1H-indazol-5-yl)amino)-5-fluoronicotinamide] was tested, and the IC50 [1] was 1000 to 3000 nM, the IC50 [2] was 130 to 200 nM and the IC50 [3] was < 10 nM.

In the case of `Cc1ncc(Nc2nc(N[C@@H]3CCOC[C@@H]3N)c(F)cc2C(N)=O)cc1-n1nccn1` [Example 2-214, 6-(((3R,4R)-3-aminotetrahydro-2H-pyran-4-yl)amino)-5-fluoro-2-((6-methyl-5-(2H-1,2,3-triazol-2-yl)pyridin-3-yl)amino)nicotinamide], the IC50 [1] is reported as 1000 to 3000 nM, the IC50 [2] is reported as 65 to 130 nM and the IC50 [3] is reported as < 10 nM.

For `COc1ncc(Nc2nc(N[C@@H]3CCOC[C@@H]3N)c(F)cc2C(N)=O)cc1-n1nccn1` [Example 2-216, 6-(((3R,4R)-3-aminotetrahydro-2H-pyran-4-yl)amino)-5-fluoro-2-((6-methoxy-5-(2H-1,2,3-triazol-2-yl)pyridin-3-yl)amino)nicotinamide], the IC50 [1] was 1000 to 3000 nM, the IC50 [2] was 130 to 200 nM and the IC50 [3] was 10 to 50 nM.

`Cc1cncc(Nc2nc(N[C@@H]3CCOC[C@@H]3N)c(F)cc2C(N)=O)c1` [Example 2-218, 6-(((3R,4R)-3-aminotetrahydro-2H-pyran-4-yl)amino)-5-fluoro-2-((5-methylpyridin-3-yl)amino)nicotinamide] gave an IC50 [1] of 1000 to 3000 nM, an IC50 [2] of 65 to 130 nM and an IC50 [3] of 10 to 50 nM.

In the case of `Cc1ncc(Nc2nc(N[C@H](C3CCC3)[C@H](C)N)c(F)cc2C(N)=O)cc1F` [Example 2-221, 6-(((1R,2S)-2-amino-1-cyclobutylpropyl)amino)-5-fluoro-2-((5-fluoro-6-methylpyridin-3-yl)amino)nicotinamide], the IC50 [1] is reported as < 1000 nM, the IC50 [2] is reported as 130 to 200 nM and the IC50 [3] is reported as < 10 nM.

`Cc1ncc(Nc2nc(N[C@H](CC(C)C)[C@H](C)N)c(F)cc2C(N)=O)cc1F` [Example 2-224, 6-(((2S,3R)-2-amino-5-methylhexan-3-yl)amino)-5-fluoro-2-((5-fluoro-6-methylpyridin-3-yl)amino)nicotinamide] was tested, and the IC50 [1] was 1000 to 3000 nM, the IC50 [2] was 130 to 200 nM and the IC50 [3] was < 10 nM.

With `CC(C)C[C@@H](Nc1nc(Nc2ccnc(N3CCOCC3)c2F)c(C(N)=O)cc1F)[C@H](C)N` [Example 2-235, 6-(((2S,3R)-2-amino-5-methylhexan-3-yl)amino)-5-fluoro-2-((3-fluoro-2-morpholinopyridin-4-yl)amino)nicotinamide] the IC50 [1] was < 1000 nM, the IC50 [2] was 65 to 130 nM and the IC50 [3] was < 10 nM.

`CC[C@H](N)[C@@H](C)Nc1nc(Nc2cnc(C)c(F)c2)c(C(N)=O)cc1F` [Example 2-270, 6-(((2R,3S)-3-aminopentan-2-yl)amino)-5-fluoro-2-((5-fluoro-6-methylpyridin-3-yl)amino)nicotinamide] gave an IC50 [1] of 1000 to 3000 nM, an IC50 [2] of 65 to 130 nM and an IC50 [3] of 10 to 50 nM.

In the case of `Cc1ncc(Nc2nc(N[C@H](c3ccc(F)cc3)[C@H](C)N)c(F)cc2C(N)=O)cc1F` [Example 2-272, 6-(((1R,2S)-2-amino-1-(4-fluorophenyl)propyl)amino)-5-fluoro-2-((5-fluoro-6-methylpyridin-3-yl)amino)nicotinamide], the IC50 [1] is reported as < 1000 nM, the IC50 [2] is reported as 130 to 200 nM and the IC50 [3] is reported as 10 to 50 nM.

`CNc1ncc(Nc2nc(N[C@H](C3CCC3)[C@H](C)N)c(F)cc2C(N)=O)cc1F` [Example 2-275, 6-(((1R,2S)-2-amino-1-cyclobutylpropyl)amino)-5-fluoro-2-((5-fluoro-6-(methylamino)pyridin-3-yl)amino)nicotinamide] was tested, and the IC50 [1] was 1000 to 3000 nM, the IC50 [2] was 130 to 200 nM and the IC50 [3] was 10 to 50 nM.

`COCCn1ncc2c(Nc3nc(N[C@H](C4CC4)[C@H](C)N)c(F)cc3C(N)=O)cccc21` [Example 2-306, 6-(((1R,2S)-2-amino-1-cyclopropylpropyl)amino)-5-fluoro-2-((1-(2-methoxyethyl)-1H-indazol-4-yl)amino)nicotinamide] was tested, and the IC50 [1] was 1000 to 3000 nM, the IC50 [2] was 130 to 200 nM and the IC50 [3] was < 10 nM.

With `CCn1ncc2c(Nc3nc(N[C@@H]4CCCC[C@@H]4N)c(F)cc3C(N)=O)cncc21` [Example 2-316] the IC50 [1] was < 1000 nM, the IC50 [2] was 65 to 130 nM and the IC50 [3] was < 10 nM.

`CCn1ncc2c(Nc3nc(N[C@@H]4CCOC[C@@H]4N)c(F)cc3C(N)=O)cncc21` [Example 2-317, 6-(((3R,4R)-3-aminotetrahydro-2H-pyran-4-yl)amino)-2-((1-ethyl-1H-pyrazolo[3,4-c]pyridin-4-yl)amino)-5-fluoronicotinamide] was tested, and the IC50 [1] was 1000 to 3000 nM, the IC50 [2] was 65 to 130 nM and the IC50 [3] was < 10 nM.

`CCC[C@@H](Nc1nc(Nc2cncc3c2cnn3CC)c(C(N)=O)cc1F)[C@H](C)N` [Example 2-319, 6-(((2S,3R)-2-aminohexan-3-yl)amino)-2-((1-ethyl-1H-pyrazolo[3,4-c]pyridin-4-yl)amino)-5-fluoronicotinamide] was tested, and the IC50 [1] was < 1000 nM, the IC50 [2] was 65 to 130 nM and the IC50 [3] was < 10 nM.

With `CCn1ncc2c(Nc3nc(N[C@H](C4CC4)[C@H](C)N)c(F)cc3C(N)=O)cncc21` [Example 2-320, 6-(((1R,2S)-2-amino-1-cyclopropylpropyl)amino)-2-((1-ethyl-1H-pyrazolo[3,4-c]pyridin-4-yl)amino)-5-fluoronicotinamide] the IC50 [1] was < 1000 nM, the IC50 [2] was 65 to 130 nM and the IC50 [3] was < 10 nM.

With `CCCC[C@@H](Nc1nc(Nc2cncc3c2cnn3CC)c(C(N)=O)cc1F)[C@H](C)N` [Example 2-321, 6-(((2S,3R)-2-aminoheptan-3-yl)amino)-2-((1-ethyl-1H-pyrazolo[3,4-c]pyridin-4-yl)amino)-5-fluoronicotinamide] the IC50 [1] was 1000 to 3000 nM, the IC50 [2] was 130 to 200 nM and the IC50 [3] was < 10 nM.

For `CCn1ncc2c(Nc3nc(N[C@H](CC(C)C)[C@H](C)N)c(F)cc3C(N)=O)cncc21` [Example 2-322, 6-(((2S,3R)-2-amino-5-methylhexan-3-yl)amino)-2-((1-ethyl-1H-pyrazolo[3,4-c]pyridin-4-yl)amino)-5-fluoronicotinamide], the IC50 [1] was < 1000 nM, the IC50 [2] was 65 to 130 nM and the IC50 [3] was < 10 nM.
